Reference: PMC11573584, “Thanatin and vinyl sulfide analogues as narrow spectrum antimicrobial peptides that synergise with polymyxin B” (Frontiers in Pharmacology, 2024)
Values after ≈ are worked out from the molar mass of the structure shown. Where two headings read alike, the source gives them in different places. Numbered stars: 1 amine (or outer) side, 2 acyl side, 3 side chain; on linkers, the order of the positions; unused ones are H or OH. Bridge positions count the residues as written; N and C are the ends. Square brackets hold non-standard residues; d marks the D form. Peptide text beside a SMILES is read from it. X1 = C=C(CC(=O)[*:1])[*:2]; X2 = C=C(CC(=O)[*:2])[*:1]; Dap = NC[C@H](N)C(=O)O

Legend:
[1] = test system: Staphylococcus aureus ATCC 29213; experiment: microbe, parasite or virus in culture; format: cell-based; settings: for MIC: read-out: Minimum inhibitory concentration (MIC)
Procedure: (§1) Staphylococcus aureus ATCC 29213, Pseudomonas aeruginosa (SVB-B9) (type strain) and Escherichia coli ATCC 25922 were grown in cation adjusted Mueller Hinton (MH) broth at 37°C with shaking (200 rpm). MIC assays were performed in accordance with the CLSI recommended protocols ([Clinical and Laboratory Standards Institute, 2006], Performance standards for antimicrobial susceptibility testing; sixteenth informational supplement. CLSI document M100-S16, Wayne, PA., 2006). See SI for further details.
(§2) 4 Antimicrobial Testing of Thanatin* (5) and Analogues 8 – 11
(§3) 4.1 Antibacterial Testing
(§4) Staphylococcus aureus ATCC 29213, Pseudomonas aeruginosa (SVB-B9) (type strain) and
(§5) Escherichia coli ATCC 25922 were grown in cation adjusted Mueller Hinton (CAMHB) broth at 37
(§6) °C with shaking (200 rpm). MIC assays were performed in accordance with the CLSI recommended
(§7) protocol (Clinical and Laboratory Standards Institute, 2006, Performance standards for antimicrobial
(§8) susceptibility testing; sixteenth informational supplement. CLSI document M100-S16, Wayne, PA.,
(§9) 2006). Briefly, a two-fold dilution series of the test compounds (from […], final) was
(§10) prepared in triplicate in polypropylene 96-well plates in CAMHB. Fresh cultures of bacteria grown for
(§11) ca. 6 h were diluted accordingly in fresh media before adding 50 µL of inoculum to each well of the
(§12) MIC plate, to achieve a final volume of 100 µL with a uniform CFU/ml of ~5 x105 in each well. A
(§13) growth control (untreated) and sterility control (non-inoculated) well was included for each test
(§14) compound replicate. Plates were incubated at 37 °C with shaking for 18 h before determining the MIC.
(§15) MIC values were determined as the lowest concentration at which no growth was observed consistently
(§16) across all three biological replicates of the assay and within triplicates of each test compound. […]

[2] = test system: Escherichia coli ATCC 25922; format: cell-based
Procedure: as §1, §2, §3, §4, §5, §6, §7, §8, §9, §10, §11, §12, §13, §14, §15, §16

[3] = test system: Pseudomonas aeruginosa (SVB-B9) (type strain); format: cell-based; settings: 18 h
Procedure: as §1, §2, §3, §4, §5, §6, §7, §8, §9, §10, §11, §12, §13, §14, §15, §16

[4] = test system: Candida albicans SC5314 (type strain); experiment: microbe, parasite or virus in culture; format: cell-based; settings: read-out: Minimum inhibitory concentration (MIC)
Procedure: Candida albicans SC5314 (type strain) was grown using RPMI 1640 media (with glutamine and phenol red, without bicarbonate). MIC assays were performed in accordance with the CLSI recommended protocol ([Clinical and Laboratory Standards Institute, 2006], Performance standards for antimicrobial susceptibility testing; sixteenth informational supplement. CLSI document M100-S16, Wayne, PA., 2006). See SI for further details. […]
Antimicrobial susceptibility of Candida albicans SC5314 (type strain) was assessed by broth
microdilution in accordance with the CLSI recommended protocols (Clinical and Laboratory Standards
Institute, 2006, Performance standards for antimicrobial susceptibility testing; sixteenth informational
supplement. CLSI document M100-S16, Wayne, PA., 2006). Briefly, a two-fold dilution series of the
test compounds (from 64 μM to 0.25 μM, final) was prepared in triplicate in polypropylene 96-well
plates, using RPMI 1640 media (with glutamine and phenol red, without bicarbonate). Inoculum was
prepared from a 24 h old culture by picking 5 colonies (~1 mm in diameter) and resuspending these in
0.85% saline. Upon vortex mixing, the resulting suspension was diluted to provide a solution with
absorbance equivalent to that of a 0.5 McFarland standard, approx. 0.1 OD at 530 nm (using 1 cm path
length cuvette). This suspension was then diluted 1:50 and a further 1:20 with RPMI 1640 media to as
to achieve a final inoculum of […] to 2.5 x 10^3 CFU/mL upon addition to the plate. The plates
were incubated at 35 °C for 48 h, at which time the MIC was determined as the lowest test concentration
at which no turbidity was observed across all three replicates. The assay was performed independently
on three occasions and the reported MIC defined as the lowest concentration in which agreement was
observed for all three biological replicates.

[5] = test system: S. aureus ATCC 25923; settings: non-cation adjusted media, ref Sinha et al. (2022); cited from earlier work
Excerpt: (§17) TABLE 1 Minimum Inhibitory Concentrations (MICs) of thanatin* (5) and similar analogues against a variety of pathogens. | column: Minimum inhibitory concentration (µM) / Thanatin ^a ^, ^b (1); Minimum inhibitory concentration (µM) / Thanatin M21F ^b (4) || TABLE 2 Minimum Inhibitory Concentrations (MICs) of thanatin* (5) and analogues (8–11) towards a variety of pathogens. | column: Minimum inhibitory concentration (µM) / 1 (Thanatin) ^a

[6] = test system: E. coli BL21; settings: non-cation adjusted media, ref Sinha et al. (2022); cited from earlier work
Excerpt: (§18) TABLE 1 Minimum Inhibitory Concentrations (MICs) of thanatin* (5) and similar analogues against a variety of pathogens. | column: Minimum inhibitory concentration (µM) / Thanatin ^a ^, ^b (1); Minimum inhibitory concentration (µM) / Thanatin M21F ^b (4)

[7] = test system: P. aeruginosa ATCC 27853; settings: non-cation adjusted media, ref Sinha et al. (2022); cited from earlier work
Excerpt: as §18

[8] = test system: E. coli ATCC 25922; settings: non-cation adjusted media, ref Wu et al. (2013); cited from earlier work
Excerpt: as §17, with “S-Thanatin ^a (3)” for “Thanatin M21F ^b (4)”

[9] = test system: P. aeruginosa; settings: ref Cirioni et al., 2011, cited from earlier work

| Molecule | MIC ([1]; ATCC 29213, 18 h) | Minimum inhibitory concentration (MIC) ([2]; ATCC 25922, 18 h) | Minimum inhibitory concentration (MIC) ([3]; SVB-B9) (type strain) | MIC ([4]; SC5314, 48 h) | other results |
| --- | --- | --- | --- | --- | --- |
| C=C1CC(=O)NC[C@@H](C(=O)N[C@@H](CCC(N)=O)C(=O)N[C@@H](CCCNC(=N)N)C(=O)N[C@@H](Cc2ccccc2)C(N)=O)NC(=O)[C@H](CCCCN)NC(=O)CNC(=O)[C@H](CO)NC(=O)[C@H](CCCNC(=N)N)NC(=O)[C@H](CCCNC(=N)N)NC(=O)[C@H](CC(N)=O)NC(=O)[C@@H](NC(=O)[C@H](Cc2ccc(O)cc2)NC(=O)[C@@H](NC(=O)[C@@H](NC(=O)[C@@H]2CCCN2C(=O)[C@@H](NC(=O)[C@@H]2CCCN2C(=O)[C@H](CCCCN)NC(=O)[C@H](CCCCN)NC(=O)[C@H](CO)NC(=O)CN)C(C)C)[C@@H](C)CC)[C@@H](C)CC)CS1 [compound 11] (H-GSKKPVPIIYCNRRSGK[Dap]QRF-NH2; linker 11-18 via X2) | >64 µM | 8 µM (≈ 19.9 µg/mL) | >64 µM | >64 µM |  |
| CC1(C)S[C@@H]2[C@H](NC(=O)[C@H](N)c3ccc(O)cc3)C(=O)N2[C@H]1C(=O)O [AMX, amoxicillin, reference compound] |  |  |  |  | MIC ([1]; Staphylococcus aureus, ATCC29213, S. aureus ATCC 29213, cation adjusted Mueller Hinton broth, 37 °C, 18 h, ~5 x10^5 CFU/mL, triplicate, three biological replicates): 2 µM (≈ 0.731 µg/mL) |
| thanatin M21F [Thanatin M21F (4)] |  |  |  |  | Minimum inhibitory concentration (MIC) [5]: 0.5 µM; Minimum inhibitory concentration (MIC) [6]: 0.5 µM; Minimum inhibitory concentration (MIC) [7]: 0.5 µM |
| C=C1CC(=O)NCCCC[C@@H](C(=O)N[C@@H](CCC(N)=O)C(=O)N[C@@H](CCCNC(=N)N)C(=O)N[C@@H](Cc2ccccc2)C(N)=O)NC(=O)[C@H](CCCCN)NC(=O)CNC(=O)[C@H](CO)NC(=O)[C@H](CCCNC(=N)N)NC(=O)[C@H](CCCNC(=N)N)NC(=O)[C@H](CC(N)=O)NC(=O)[C@@H](NC(=O)[C@H](Cc2ccc(O)cc2)NC(=O)[C@@H](NC(=O)[C@@H](NC(=O)[C@@H]2CCCN2C(=O)[C@@H](NC(=O)[C@@H]2CCCN2C(=O)[C@H](CCCCN)NC(=O)[C@H](CCCCN)NC(=O)[C@H](CO)NC(=O)CN)C(C)C)[C@@H](C)CC)[C@@H](C)CC)CS1 [compound 10] (H-GSKKPVPIIYCNRRSGKKQRF-NH2; linker 11-18 via X2) | >64 µM | 4 µM (≈ 10.1 µg/mL) | >64 µM | >64 µM |  |
| polymyxin B [PMB, reference compound] |  |  |  |  | Minimum inhibitory concentration (MIC) ([2]; E. coli ATCC 25922, cation adjusted Mueller Hinton broth, 37 °C, 18 h, ~5 x10^5 CFU/mL, triplicate, three biological replicates): 0.125 µM; Minimum inhibitory concentration (MIC) ([3]; P. aeruginosa (SVB-B9) type strain, cation adjusted Mueller Hinton broth, 37 °C, ~5 x10^5 CFU/mL, triplicate, three biological replicates): 0.125 µM |
| C=C1CC(=O)NC[C@H](NC(=O)[C@H](Cc2ccc(O)cc2)NC(=O)[C@@H](NC(=O)[C@@H](NC(=O)[C@@H]2CCCN2C(=O)[C@@H](NC(=O)[C@@H]2CCCN2C(=O)[C@H](CCCCN)NC(=O)[C@H](CCCCN)NC(=O)[C@H](CO)NC(=O)CN)C(C)C)[C@@H](C)CC)[C@@H](C)CC)C(=O)N[C@@H](CC(N)=O)C(=O)N[C@@H](CCCNC(=N)N)C(=O)N[C@@H](CCCNC(=N)N)C(=O)N[C@@H](CO)C(=O)NCC(=O)N[C@@H](CCCCN)C(=O)N[C@H](C(=O)N[C@@H](CCC(N)=O)C(=O)N[C@@H](CCCNC(=N)N)C(=O)N[C@@H](Cc2ccccc2)C(N)=O)CS1 [compound 9] (H-GSKKPVPIIY[Dap]NRRSGKCQRF-NH2; linker 11-18 via X1) | >64 µM | 16 µM (≈ 39.8 µg/mL) | >64 µM | >64 µM | reduction in potency compared to thanatin* (5) ([2]; E. coli ATCC 25922 MIC): 16 fold |
| C[C@@H]1[C@H](O)[C@@H](C)/C=C/C=C/C=C/C=C/C=C/C=C/C=C/[C@H](O[C@@H]2O[C@H](C)[C@@H](O)[C@H](N)[C@@H]2O)C[C@@H]2O[C@](O)(C[C@@H](O)C[C@@H](O)[C@H](O)CC[C@@H](O)C[C@@H](O)CC(=O)O[C@H]1C)C[C@H](O)[C@H]2C(=O)O [AMB, amphotericin B, reference compound] |  |  |  |  | MIC ([4]; Candida albicans, C. albicans SC5314, RPMI 1640 media, 35 °C, 48 h, triplicate, three independent assays): 1 µM (≈ 0.924 µg/mL) |
| C=C1CC(=O)NCCCC[C@H](NC(=O)[C@H](Cc2ccc(O)cc2)NC(=O)[C@@H](NC(=O)[C@@H](NC(=O)[C@@H]2CCCN2C(=O)[C@@H](NC(=O)[C@@H]2CCCN2C(=O)[C@H](CCCCN)NC(=O)[C@H](CCCCN)NC(=O)[C@H](CO)NC(=O)CN)C(C)C)[C@@H](C)CC)[C@@H](C)CC)C(=O)N[C@@H](CC(N)=O)C(=O)N[C@@H](CCCNC(=N)N)C(=O)N[C@@H](CCCNC(=N)N)C(=O)N[C@@H](CO)C(=O)NCC(=O)N[C@@H](CCCCN)C(=O)N[C@H](C(=O)N[C@@H](CCC(N)=O)C(=O)N[C@@H](CCCNC(=N)N)C(=O)N[C@@H](Cc2ccccc2)C(N)=O)CS1 [compound 8] (H-GSKKPVPIIYKNRRSGKCQRF-NH2; linker 11-18 via X1) | >64 µM | 4 µM (≈ 10.1 µg/mL) | >64 µM | >64 µM |  |
| CC[C@H](C)[C@H](NC(=O)[C@@H](NC(=O)[C@@H]1CCCN1C(=O)[C@@H](NC(=O)[C@@H]1CCCN1C(=O)[C@H](CCCCN)NC(=O)[C@H](CCCCN)NC(=O)[C@H](CO)NC(=O)CN)C(C)C)[C@@H](C)CC)C(=O)N[C@@H](Cc1ccc(O)cc1)C(=O)N[C@H]1CSSC[C@@H](C(=O)N[C@@H](CCC(N)=O)C(=O)N[C@@H](CCCNC(=N)N)C(=O)N[C@@H](Cc2ccccc2)C(N)=O)NC(=O)[C@H](CCCCN)NC(=O)CNC(=O)[C@H](CO)NC(=O)[C@H](CCCNC(=N)N)NC(=O)[C@H](CCCNC(=N)N)NC(=O)[C@H](CC(N)=O)NC1=O [Thanatin* (5), thanatin*] (H-GSKKPVPIIYCNRRSGKCQRF-NH2; disulfide 11-18) | >64 µM | 1 µM (≈ 2.43 µg/mL) | >64 µM | >64 µM | Minimum inhibitory concentration (MIC) ([1]; S. aureus ATCC 29213, cation adjusted Mueller Hinton broth, 37 °C, 18 h, ~5 x10^5 CFU/mL, triplicate, three biological replicates): no activity; selectivity towards E. coli over P. aeruginosa ([2]; ratio of MICs, P. aeruginosa (SVB-B9) vs E. coli ATCC 25922, cation adjusted media): > 64 fold |
| S-thanatin [S-Thanatin (3)] |  |  |  |  | Minimum inhibitory concentration (MIC) [8]: 1.6 µM; FICI ([9]; S-thanatin with colistin (polymyxin E)): 0.46; MIC [9]: 16 µg/mL |
